Patent publication US8536139B2, “Compositions comprising lipoteichoic acid for use in treating pleural effusion or pneumothorax” (ISIS Innovation Limited, priority 2007, dated 2013)
“And” between values parts separate entries of the source, which are not always exact repeats. Equal entries are not always repeated.

Key:
Assay type in all cases: in vivo, human
[1] = tested on: adults with histocytologically proven malignant pleural effusion; assay: Alveolar to arterial gradient in the partial pressure of oxygen (arterial blood gases breathing air)
Text: Arterial blood gases breathing air were taken on days 1 and 3 of the first week (pre and post control saline), and on days 7 and 9 (pre and post LTA-T) to identify any impaired gas exchange (which is a problem with talc pleurodesis). The efficiency of lung oxygen exchange was quantified from the change in the alveolar to arterial gradient for the partial pressure of oxygen calculated from these blood gas samples, using standard methods.
(§1) Changes in continuous variables were compared to baseline using a paired t-test (SPSS version 12.0).

[2] = tested on: adults with histocytologically proven malignant pleural effusion; assay: Phase I/IIa trial of intrapleural LTA-T: dose escalation and toxicity
Text: The study was a phase I/IIa toxicity/non-randomised “proof of concept” efficacy trial. The protocol included administration of an intrapleural saline control followed by seven days pleural fluid production measurement prior to the administration of LTA-T to allow the assessment of any side-effects from LTA-T administration, and both acute pleural fluid production changes and the frequency of long-term pleurodesis efficacy after intrapleural LTA-T (see FIG. 1).
The subjects were adults (aged≧18) with histocytologically proven malignant pleural effusion requiring symptomatic treatment.
(§2) After informed consent, an indwelling pleural catheter (PleurX, Denver, Colo.) was placed in the pleural effusion and the pleural space fully drained. Markers of toxicity (clinical symptoms, blood parameters, performance status) were recorded daily on the first 14 days of the study and at intervals thereafter (FIG. 1).
After initial complete fluid drainage, 30 mls intra-pleural saline (saline control) was administered (day 1). The daily pleural fluid drainage was then recorded for seven days to quantify the rate of production of pleural fluid. On day seven, subjects received a single intra-pleural injection of LTA-T, according to the dosing schedule (table 1). The starting dose was 250 mcg. Patients remained in hospital for one night following LTA-T administration in a respiratory unit equipped for the care of acute respiratory failure to permit immediate adverse event monitoring.
(§3) Patient symptoms, performance status, radiographic pleural fluid recurrence (chest radiograph), adverse events and the clinical need for further pleural fluid drainage was assessed on days 22, 43, 64, 85. Where further fluid drainage was required, the time from the administration of LTA-T to first drainage was recorded. Those with recurrent pleural fluid were offered sterile talc pleurodesis (as standard care). All patients were followed up to death.

[3] = tested on: malignant pleural effusion; assay: Long-term pleural fluid control (pleurodesis success, need for late therapeutic drainage)
Protocol: Over the next 7 days (days 7-14), daily pleural fluid volume drainage and pleural fluid cytology for malignant cells was performed unless pleural fluid flow ceased. On day 14, the intra-pleural catheter was flushed and closed (but left in situ) and not used again for the duration of the study unless recurrent pleural fluid caused breathlessness requiring treatment by fluid drainage.
as §3
Long-term pleural fluid control was assessed by noting which patients required late therapeutic (>500 mls) pleural fluid drainage from their indwelling catheter in association with symptoms (excluding the subject not capable of achieving pleurodesis due to trapped lung). […] Between day 14 (when the indwelling catheter was first locked closed) and 1 month, 3 further patients received one therapeutic fluid drainage (pleurodesis success from day 14 9/12 (75%)). In those patients receiving a dose >750 mcg of intrapleural LTA-T, 6/7 required no therapeutic drainage at 1 month (86% pleurodesis success rate).

[4] = tested on: adults with histocytologically proven malignant pleural effusion; assay: Peripheral blood white cell count change 24 hours after intrapleural administration; settings: 7 subjects receiving >750 mcg; p=0.016, paired t-test
Protocol: FIG. 3 illustrates the change in peripheral white cell count 24 hours after administration of intrapleural saline control or LTA-T, in all patients (FIG. 3a) and patients receiving 750 mcg LTA-T or more (FIG. 3b). Individual results are shown and mean and SD data for each group.
as §2, §1

Substance: lipoteichoic acid T [LTA-T]
- Alveolar to arterial gradient for the partial pressure of oxygen, post LTA-T, mean (SD) ([1]; day 9, mean baseline (SD) 4.24 (2.92) kPa): 4.88 (1.80) kPa
- Blood oxygen levels ([1]; dose of 750 mcg to 1000 mcg): no evidence of depressed blood oxygen levels
- Change in the alveolar to arterial gradient versus saline control ([1]; following LTA-T compared with saline control): similar
- Toxicity at the therapeutic dose ([2]; 750-1500 mcg intrapleural): mild with no consistent side effect profile
- Pain ([2]; dose of 750 mcg to 1000 mcg): almost no pain
- Side effects ([2]; individual patients, single intrapleural dose 250 mcg): mild fever and Nil and Mild chest pain 2 hours post administration
- Side effects ([2]; individual patients, single intrapleural dose 375 mcg): Nil (2×) and Mild headache and light headed 4 hours
- Side effects ([2]; individual patients, single intrapleural dose 750 mcg): Nil and Mild back pain on inspiration after LTA-T, and Nausea, vomiting and pyrexia for 3 days
- Side effects ([2]; individual patients, single intrapleural dose 1500 mcg): Nil
- Raised inflammatory markers (CRP) ([2]; patient 10, 750 mcg, post LTA-T administration): inflammatory markers (CRP > 285).
- Side effects ([2]; patient 14, single intrapleural dose 3000 mcg): systemic inflammatory reaction
- Blood parameter, performance status or respiratory status toxicities ([2]; whole trial): No blood parameter, performance status or respiratory status toxicities were seen
- Pleurodesis success from day 14 ([3]; 9/12, day 14 to 1 month, where pleurodesis technically achievable): 75%
- Patients not requiring any further therapeutic pleural drainage beyond 1 month from trial entry ([3]; 12/13 patients, trapped lung subject excluded): 92%
- Pleurodesis outcome ([3]; dose of 750 mcg to 1000 mcg): effective pleurodesis
- Pleurodesis success rate (no therapeutic drainage at 1 month) ([3]; patients receiving >750 mcg intrapleural, 6/7): 86%
- Difference in WCC change, LTA-T vs saline [4]: 4.70 (3.77)
